Experimental data taken from ChEMBL document CHEMBL1150358, “Substituted benzyl-pyrimidines targeting thymidine monophosphate kinase of Mycobacterium tuberculosis: synthesis and in vitro anti-mycobacterial activity” (Bioorg Med Chem, 2008).
≈ marks a conversion by molar mass, not a printed value. Calls of active or inactive are those of the source. No cut-off for these calls is given here.

Test system: Mycobacterium tuberculosis
Assay: Antimicrobial activity against Mycobacterium bovis BCG 1173P2 after 8 days
Format: functional
Conditions: variant bovis BCG

Question: With `NC(=O)CCCCc1ccc(Cn2cc(Br)c(=O)[nH]c2=O)cc1` as the molecule, how does the Activity read?
Answer: inactive

Question: Which Activity does the source give for `CCCCCCc1ccc(Cn2cc(Br)c(=O)[nH]c2=O)cc1` here?
Answer: inactive

Question: For `CCCCc1ccc(Cn2cc(Br)c(=O)[nH]c2=O)cc1`, which Activity is on record?
Answer: inactive

Question: How did the Activity turn out when `CCCCc1ccc(Cn2cc(Cl)c(=O)[nH]c2=O)cc1` was run?
Answer: inactive

Question: Which Activity does the source give for `Cc1cn([C@H]2C[C@H](O)[C@@H](CO)O2)c(=O)[nH]c1=O` [DOXRIBTIMINE] here?
Answer: inactive

Question: Which Activity does the source give for `NC(=O)CCCCCc1ccc(Cn2cc(Br)c(=O)[nH]c2=O)cc1` here?
Answer: inactive

Question: `O=c1[nH]c(=O)n([C@H]2C[C@H](O)[C@@H](CO)O2)cc1Br` [BROXURIDINE] was tested. Which Activity did it give?
Answer: inactive

Question: With `CCCCCCc1ccc(Cn2cc(Cl)c(=O)[nH]c2=O)cc1` as the molecule, how does the Activity read?
Answer: inactive

Question: With `Cc1cn(Cc2ccc(CCCCC(N)=O)cc2)c(=O)[nH]c1=O` as the molecule, how does the Activity read?
Answer: inactive

Question: With `Cc1cn(Cc2ccc(Br)cc2)c(=O)[nH]c1=O` as the molecule, how does the Activity read?
Answer: inactive

Same assay, conditions: variant bovis BCG, 192 h

Question: How did the MIC50 turn out when `NC(=O)CCCc1ccc(Cn2cc(Cl)c(=O)[nH]c2=O)cc1` was run?
Answer: 51 µg/mL (≈ 159 µM)

Question: How did the MIC50 turn out when `O=C(O)CCCCc1ccc(Cn2cc(Br)c(=O)[nH]c2=O)cc1` was run?
Answer: 100 µg/mL (≈ 262 µM)

Question: How did the MIC50 turn out when `O=C(O)CCCc1ccc(Cn2cc(Cl)c(=O)[nH]c2=O)cc1` was run?
Answer: 45 µg/mL (≈ 139 µM)

Question: For `NC(=O)CCCc1ccc(Cn2ccc(=O)[nH]c2=O)cc1`, which MIC50 is on record?
Answer: 270 µg/mL (≈ 940 µM)

Question: With `NC(=O)CCCCCc1ccc(Cn2cc(Cl)c(=O)[nH]c2=O)cc1` as the molecule, how does the MIC50 read?
Answer: 288 µg/mL (≈ 823 µM)

Question: Which MIC50 does the source give for `Cc1cn(Cc2ccc(CCCCO)cc2)c(=O)[nH]c1=O` here?
Answer: 365 µg/mL (≈ 1270 µM)

Question: How did the MIC50 turn out when `COC(=O)CCCc1ccc(Cn2cc(Br)c(=O)[nH]c2=O)cc1` was run?
Answer: 180 µg/mL (≈ 472 µM)

Question: With `O=C(O)CCCCCc1ccc(Cn2cc(Br)c(=O)[nH]c2=O)cc1` as the molecule, how does the MIC50 read?
Answer: 80 µg/mL (≈ 202 µM)

Question: How did the MIC50 turn out when `O=C(O)CCCc1ccc(Cn2cc(Br)c(=O)[nH]c2=O)cc1` was run?
Answer: 50 µg/mL (≈ 136 µM)

Question: Which MIC50 does the source give for `Cc1cn(Cc2ccc(CCCCC(=O)O)cc2)c(=O)[nH]c1=O` here?
Answer: 120 µg/mL (≈ 379 µM)

Question: Which MIC50 does the source give for `Cc1cn(Cc2ccc(C#CCCCC(=O)O)cc2)c(=O)[nH]c1=O` here?
Answer: 150 µg/mL (≈ 460 µM)

Question: Which MIC50 does the source give for `NC(=O)CCCc1ccc(Cn2cc(Br)c(=O)[nH]c2=O)cc1` here?
Answer: 55 µg/mL (≈ 150 µM)

Question: How did the MIC50 turn out when `COC(=O)CCCc1ccc(Cn2cc(Cl)c(=O)[nH]c2=O)cc1` was run?
Answer: 260 µg/mL (≈ 772 µM)

Question: With `O=C(O)CCCCc1ccc(Cn2cc(Cl)c(=O)[nH]c2=O)cc1` as the molecule, how does the MIC50 read?
Answer: 120 µg/mL (≈ 356 µM)

Question: For `O=C(O)CCCCCc1ccc(Cn2cc(Cl)c(=O)[nH]c2=O)cc1`, which MIC50 is on record?
Answer: 125 µg/mL (≈ 356 µM)

Question: For `O=C(O)CCCc1ccc(Cn2ccc(=O)[nH]c2=O)cc1`, which MIC50 is on record?
Answer: 225 µg/mL (≈ 780 µM)

Question: With `Cc1cn(Cc2ccc(CCCCCC(=O)O)cc2)c(=O)[nH]c1=O` as the molecule, how does the MIC50 read?
Answer: 195 µg/mL (≈ 590 µM)

Question: With `Cc1cn(Cc2ccc(CCCCCC(N)=O)cc2)c(=O)[nH]c1=O` as the molecule, how does the MIC50 read?
Answer: 230 µg/mL (≈ 698 µM)
